One data set has as its system human cervical explants. To be noted: cited from earlier work.
The test system of the next data set is rabbit model. To be noted: in vivo rabbit model; cited from earlier work.
For data set [1], the system named is G. vaginalis (ATCC 14018). In words: Zone of inhibition on HBT plate lawn. Format: cell-based, Gardnella vaginalis. To be noted: 37° C., 6% CO2, 48 hours. How it is done: To test the bioactivity of metronidazole film, Gardnella vaginalis (G. vaginilis) (ATCC 14018) was plated on HBT plates to form a lawn. A metronidazole film was placed in the middle of the plated bacteria and plates were incubated at 37° C. with 6% CO2 for 48 hours. Post incubation, the plates were visually inspected for the formation of a zone of inhibition. Placebo films and metronidazole drug substance were prepared and tested in the same manner as the controls. […] This confirms that G. vaginilis growth is inhibited by the presence of both the metronidazole drug substance alone and within the film. On the other hand, G. vaginilis was not affected by the placebo film.
To test the bioactivity of bacterial/metronidazole combination film, G. vaginalis (ATCC 14018) was plated on Human Blood Tween Bilayer (HBT) plates to form a lawn. Bacteria/metronidazole film was placed in the middle of the HBT plated bacteria and plates were incubated at 37° C. with 6% CO2 for 48 hours. Post incubation, the plates were visually inspected for the formation of a zone of inhibition and L. jensenii growth. Placebo films, metronidazole drug substance, and bacterial loaded film were prepared and tested in the same manner as the controls. […] Therefore, the desired in vivo antimicrobial and probiotic effects of the combination film were confirmed in vitro. […]

The conditions of data set [2]: pH 9; cited from earlier work.
The test system of another data set is TZM-bl cells. Format: cell-based.
In data set [3] the test system is wild type and resistant mutant HIV. Conditions: cited from earlier work.

In brackets after ≈: the same amount, converted by molar mass.

Experimental for TZM-bl cells: A DPV film was dissolved in 2 mL of saline and ten-fold serial dilutions were made. The DPV drug substance stock solution (1000 nM) was mixed in DMSO and serially diluted in DMEM with 10% BSA supplemented with antibiotics, which is the medium used in the TZM-bl assay. All dilution samples were added in triplicates to the TZM-bl cells that were plated. […] For cellular toxicity evaluation, similar set up of the experiment was conducted. Except that for toxicity study, the cells were not exposed to the virus. In this study the cells were exposed to CellTiter-Glo, and luminescence signal was measured. Cellular viability was determined based on the deviation from the cell-only control (Nixon, B., et al., Griffithsin protects mice from genital herpes by preventing cell-to-cell spread. J. Virol., 2013, 87(11):6257-6269).

With Griffithsin [GRFT], the “safety” value in the data set on human cervical explants and with rabbit model was “safe” throughout.
With `Cc1ncc([N+](=O)[O-])n1CCO` [Metronidazole], the zone of inhibition in data set [1] is reported as ~1.5 cm.
What is called logP is the decadic logarithm of the partition coefficient of the neutral form, usually between octanol and water. One may read the EC50 as the concentration giving half of the maximal effect. A word on the EC90: it is the point of the concentration-response curve where the effect stands at 90%. For `Cc1cc(C)c(Nc2ccnc(Nc3ccc(C#N)cc3)n2)c(C)c1` [DPV, Dapivirine], in data set [2], the log partition coefficient (logP) is 5.27. For the same molecule, the “cellular toxicity” value with TZM-bl cells was “no cellular toxicity”. In data set [3], the EC50 was 0.3 ng/mL (≈ 0.911 nM) and the EC90 is given as 0.9 ng/mL (≈ 2.73 nM).

The record behind these values is patent US11672757B2, “Hot melt extrusion for pharmaceutical vaginal film products” (UNIVERSITY OF PITTSBURGH-OF THE COMMONWEALTH SYSTEM OF …, priority 2017, dated 2023).
